Assay results published in patent publication US20130245110A1, “USE FOR CANNABINOIDS” (priority 2008, published 2013).
Several values for one entry are separate records, joined by “and”; a condition that tells them apart may be missing. Equal entries are not always repeated.

How the values were obtained:
3T3L1 cells = test: Induction of adipocyte differentiation (Oil red O); assay type: cell-based; details: treated for 8 days
Experimental: In vitro vascular studies were carried out in rat isolated aortae by wire myography. PPARγ activation was investigated using reporter gene assays, a PPARγ competition-binding assay and an adipogenesis assay.
Cells were fixed and stained with Oil red O to identify fat droplets, to the presence of which indicates differentiation of fibroblasts into adipocytes. […] […].

C57B1/6 ob/ob mouse = test: Fed plasma cholesterol; assay type: in vivo; details: ob/ob mice, individual values
Experimental: Blood samples were also taken at −30 minutes for insulin analysis. • e) Blood Glucose analysis: Duplicate 20 μl samples of blood of were taken for each individual sample and placed in a 96-well assay plate. To each well was added 180 μl aliquots of glucose oxidase reagent. Samples were mixed and then left for approximately 30 minutes. Samples were then analysed automatically using a SpectraMax-250 and SoftMax Pro software. • f) Plasma preparation: Blood was collected for the measurement of i) plasma insulin, ii) cholesterol, iii) free fatty acids or iv) triglyceride concentration. • i. Plasma insulin analysis: Plasma insulin was measured using 5 μl of plasma, compared with a mouse insulin standard using a 96-well micro-assay plate • ii. Plasma cholesterol analysis: To each sample was added 200 μl of infinity cholesterol liquid stable reagent. The samples were mixed and incubated for 5 minutes before reading at dual wavelengths of 500 and 660 nm. • iii. Plasma free fatty acids: 5 μl samples of plasma were measured into a 96-well assay plate, to which was added 0.2 ml of reagents NEFA C • iv. Plasma triglycerides analysis: To each well 200 μl aliquots of triglycerides reagent. […] Comparison with a calibrated standard allowed identification of types of tissue by their density. Dedicated software was using to quantify amounts of bone and fat. The mice were lightly anaesthetised, sufficient to keep them quiescent during this non-invasive technique. • h) Energy expenditure measurements: Energy expenditure was measured by open circuit indirect calorimetry with mice in their home cages. For studies of 24 h energy expenditure, mice were dosed with their allocated treatment and then measurements commenced. […] Plasma leptin was measured in fed mice using the Crystal Chem Elisa assay. • j) Plasma adiponectin: Adiponectin exerts some of its weight reduction effects via the brain. […] Plasma adiponectin was measured in overnight fasted mice using the 96-well B-Bridge Elisa assay. • k) Plasma HDL-cholesterol: Plasma HDL-cholesterol was measured in fed mice using the kit from Trinity Biotech. • l) 24 h blood glucose profile: This was determined in order to ensure that changes in the diurnal control of blood glucose were detected. Thus blood samples were obtained at three hourly intervals throughout a continuous 24 h period. • m) Plasma haemoglobin AIC: Samples (10 μl) were analysed using the AIC. […] Morphology was assessed using hematoxylin and eosin staining. • p) Liver glycogen: After centrifugation (3000×g for 15 min), an aliquot of the supernatant (10 μl) is assayed using the glucose oxidase method. […] The residue is dissolved in 200 μl ethanol and triglyceride content measured. […]

[1] = 3.0 mg·kg−1 daily oral gavage (combination: both 3.0)

With `C=C(C)[C@@H]1CCC(C)=C[C@H]1c1c(O)cc(CCCCC)cc1O` [CBD, cannabidiol] the “Differentiation of fibroblasts into adipocytes (Oil Red O staining of fat droplets)” value (3T3L1 cells) was “signs of fat droplet accumulation were apparent at all concentrations tested”, the “Fed plasma cholesterol day 28” value (C57B1/6 ob/ob mouse; [1]) was “reduced the total plasma cholesterol concentration and 3.64 and 4.22 and 3.77 and 5.02 and 2.90 and 5.38 and 3.50” and the “Fed plasma cholesterol day 28” value (C57B1/6 ob/ob mouse; 3.0 mg·kg−1 daily oral gavage (combination: both 3.0), listed as Pure CBD) was “reduced the total plasma cholesterol”.
`CCCc1cc(O)c2c(c1)OC(C)(C)[C@@H]1CCC(C)=C[C@@H]21` [THCV, tetrahydrocannabivarin] was tested, and the “Fed plasma cholesterol day 28” value (C57B1/6 ob/ob mouse; 0.3 mg·kg−1 daily oral gavage (combination: both 0.3)) was 7.12 and 8.60 and 6.43 and 5.99 and 6.21 and 6.45 and 5.93 and 5.62 and the “Fed plasma cholesterol day 28” value (C57B1/6 ob/ob mouse; [1]) was 6.30 and 6.94 and 6.59 and 6.20 and 7.22 and 6.46 and 7.66 and 7.05.
